Measurements from patent US9458179B2, “Quinuclidine, 1-azabicyclo[2.2.1]heptane, 1-azabicyclo [3.2.1]octane, and 1-azabicyclo[3.2.2]nonane compounds as alpha-7 nicotinic acetylcholine receptor ligands” (BRISTOL-MYERS SQUIBB COMPANY, priority 2012, dated 2016).

The compounds below were run against T1, α-7 nicotinic ACh receptor ion channel (Rattus norvegicus, UniProt Q05941) (assay: Ca2+-sensitive fluorescence-based FLIPR assay of α7 nicotinic receptor channel function (agonist activity)). Conditions: FLIPR α7-HI (EC50, nM), HEK 293 cells, Ca2+ flux.
T1 construct: expressed in transfected cells
Format: cell-based
Protocol: II) A Ca^2+-Sensitive, Fluorescence-Based Assay α-7 for Nicotinic Acetylcholine Receptor Channel Function in Mammalian Cells (“FLIPR”).
Lead compounds are evaluated for agonist activity at α-7, α3β4, α4αβ2, and α1β1δ1ε sub-types of nicotinic ACh receptor ion channels expressed in mammalian HEK 293 cells. Agonist potency and efficacy values are determined from kinetic fluorescence Ca^2+ influx measurements made using a 384 well FLIPR (Fluorescence Image Plate Reader). […] In this assay, channel expressing HEK cell lines seeded in 384 well assay plates are loaded with a membrane permeant fluorescent Ca^2+ indicator dye, whose 510 nm green emission signal increases in response to elevation of intracellular Ca^2+ concentration. The basal fluorescence from the cells is monitored in real time, followed by the acute addition of test compounds.
Reagents: The acetomethoxy (AM) ester of the Ca^2+ indicator dye Fluo-4 was obtained from InVitrogen, (Carlsbad, Calif.). Acetylcholine and all buffer constituents were purchased from Sigma Chemical Company, St. Louis, Mo. G418 and Minimal Essential Medium were purchased from InVitrogen Life Technologies, Carlsbad, Calif. Fetal bovine serum was purchased from (InVitrogen, Carlsbad, Calif.).
HEK-293 cells were grown in Minimal Essential Medium containing 10% (v/v) fetal bovine serum at 37° C. in a 5% CO2 incubator. HEK-293 cells stably expressing the ion channels were grown in the same medium with the addition of 500 μg/ml G418.
HEK-293 cells expressing the ion channels of interest were plated in 384 well, black-walled, clear-bottomed, poly-D-lysine coated plates at a density of ˜20,000 cells/well in 20 μl of Minimal Essential Medium containing 10% (v/v) fetal bovine serum and incubated for 2 days at 29° C. in a 5% CO2 incubator. Prior to assay, cells were loaded with the Fluo-4 AM ester. […] Dye loading was allowed to proceed for 90 minutes at room temperature at which time the dye loading solution was removed and replaced with 40 μl/well of Hanks buffer. Cells loaded with dye were loaded onto a FLIPR384 (Molecular Devices, Sunnyvale, Calif.). […] Emission was filtered using a 540+/−30 nm bandpass filter. For evaluation of the effects of test compounds using the Ca^2+ flux assay, compounds to be tested were provided in assay ready plates. For nicotinic receptor ion channel expressing cells, the assay was initiated by the addition of 20 μl/well of Hanks buffer containing test compounds. For all assays, data were collected at 1 Hz for 10 seconds (baseline), at which time the compound containing stimulus buffers are added, and further measurements collected at 0.33 Hz for 3 min.
The statistical robustness of the nicotinic receptor Ca^2+ flux assays is determined from blanks and totals wells. […] The raw fluorescence units data files generated on the FLIPR plate reader are automatically exported and processed by in-house data analysis tools. The reduced percent activation data for each concentration of test compound are fit using MathIQ fitting engine (ID Business Solutions Limited, Surrey, UK). Data were analyzed by fitting maximum amplitudes of change in fluorescence, for Ca^2+ flux for a given condition of test compound. […] Test compound efficacy values (Ymax values) are expressed relative to a maximal response to acetylcholine in the total wells.

T1 sequence (Q05941 23-502): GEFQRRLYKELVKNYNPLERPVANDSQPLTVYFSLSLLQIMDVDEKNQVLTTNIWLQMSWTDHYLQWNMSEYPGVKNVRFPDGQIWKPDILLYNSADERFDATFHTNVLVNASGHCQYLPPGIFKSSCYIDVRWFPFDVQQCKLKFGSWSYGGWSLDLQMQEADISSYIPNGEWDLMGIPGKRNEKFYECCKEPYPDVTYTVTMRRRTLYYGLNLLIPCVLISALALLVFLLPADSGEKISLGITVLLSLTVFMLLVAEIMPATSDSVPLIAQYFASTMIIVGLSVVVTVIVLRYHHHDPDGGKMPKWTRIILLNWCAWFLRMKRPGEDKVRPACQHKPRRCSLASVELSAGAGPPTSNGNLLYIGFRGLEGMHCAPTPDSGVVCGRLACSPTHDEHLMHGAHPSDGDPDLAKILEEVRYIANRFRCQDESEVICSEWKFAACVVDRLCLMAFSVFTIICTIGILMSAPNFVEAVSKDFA

| Structure (SMILES) | EC50 [nM] |
| --- | --- |
| CN1C(Nc2ccc3ccccc3n2)=NCC12CN1CCC2CC1 (stereo not drawn) [Example 40] | 942 |
| c1csc(NC2=NCC3(CN4CCC3CC4)N2)n1 (stereo not drawn) [Example 9] | 1060 |
| Clc1cnc(NC2=NCC3(CN4CCC3CC4)N2)nc1 (stereo not drawn) [Example 17] | 286 |
| Clc1ccc2nc(NC3=NCC4(CN5CCC4CC5)N3)sc2c1 (stereo not drawn) [Example 52] | 154 |

Same assay, conditions: FLIPR α7-HI (EC50, nM), HEK 293 cells, Ca2+ flux; Table 1, activity class

| Structure (SMILES) | EC50 [nM] |
| --- | --- |
| O=c1ccc2nc(NC3=NCC4(CN5CCC4CC5)N3)sc2[nH]1 (stereo not drawn) [Example 42, 2-(1′,5′-Dihydrospiro[4-azabicyclo[2.2.2]octane-2,4′-imidazol]-2′-ylamino)[1,3]thiazolo[5,4-b]pyridin-5 (4H)-one] | 100 to 1000 |
| COc1ccc2sc(NC3=NCC4(CN5CCC4CC5)N3)nc2c1 (stereo not drawn) [Example 54] | 100 to 1000 |
| CN1C(Nc2nccs2)=NCC12CN1CCC2CC1 (stereo not drawn) [Example 10] | 1000 to 100000 |
| CN1C(Nc2nc3ccc(Cl)nc3s2)=NCC12CN1CCC2CC1 (stereo not drawn) [Example 29] | 100 to 1000 |
| COc1ncnc2sc(NC3=NCC4(CN5CCC4CC5)N3)nc12 (stereo not drawn) [Example 38] | 1000 to 100000 |
| c1cn(-c2cc(NC3=NCC4(CN5CCC4CC5)N3)ncn2)cn1 (stereo not drawn) [Example 61] | 100 to 1000 |
| COc1ncc2nc(NC3=NCC4(CN5CCC4CC5)N3)sc2n1 (stereo not drawn) [Example 19, N-(5-Methoxy[1,3]thiazolo[5,4-d]pyrimidin-2-yl)-1′,5′-dihydrospiro[4-azabicyclo[2.2.2]octane-2,4′-imidazol]-2′-amine] | 1000 to 100000 |
| CN(C)c1ccc2nc(NC3=NCC4(CN5CCC4CC5)N3)sc2n1 (stereo not drawn) [Example 48, N˜2˜-(1′,5′-Dihydrospiro[4-azabicyclo[2.2.2]octane-2,4′-imidazol]-2′-yl)-N˜5˜,N˜5˜-dimethyl[1,3]thiazolo[5,4-b]pyridine-2,5-diamine] | 1000 to 100000 |
| Cc1ccc2nc(NC3=NCC4(CN5CCC4CC5)N3)oc2c1 (stereo not drawn) [Example 8b] | 1000 to 100000 |
| COc1ccc2nc(NC3=NCC4(CN5CCC4CC5)N3)sc2n1 (stereo not drawn) [Example 46] | 100 to 1000 |
| c1ccc2sc(NC3=NCC4(CN5CCC4CC5)N3)nc2c1 (single isomer, unassigned) [Example 11a] | < 100 |
| c1cnc2sc(NC3=NCC4(CN5CCC4CC5)N3)nc2n1 (stereo not drawn) [Example 32, N-[1,3]Thiazolo[4,5-b]pyrazin-2-yl-1′,5′-dihydrospiro[4-azabicyclo[2.2.2]octane-2,4′-imidazol]-2′-amine] | 100 to 1000 |
| c1ccn2cc(NC3=NCC4(CN5CCC4CC5)N3)nc2c1 (stereo not drawn) [Example 37] | 1000 to 100000 |
| c1ccc2c(NC3=NCC4(CN5CCC4CC5)N3)ncnc2c1 (stereo not drawn) [Example 23] | 100 to 1000 |
| CN1C(Nc2nc3ccc(F)nc3s2)=NCC12CN1CCC2CC1 (stereo not drawn) [Example 45] | 1000 to 100000 |
| c1ccc2nc(NC3=NCC4(CN5CCC4CC5)N3)cnc2c1 (stereo not drawn) [Example 36] | 100 to 1000 |
| FC(F)(F)c1ccc2c(NC3=NCC4(CN5CCC4CC5)N3)n[nH]c2c1 (stereo not drawn) [Example 51] | > 1e+06 |
| CN1C(Nc2ccc3ccccc3n2)=NCC12CN1CCC2CC1 (stereo not drawn) [Example 40] | 100 to 1000 |
| Brc1ccc2c(NC3=NCC4(CN5CCC4CC5)N3)ncnn12 (stereo not drawn) [Example 66] | 100 to 1000 |
| COc1ccc2nc(NC3=NCC4(CN5CCC4CC5)N3)sc2c1 (stereo not drawn) [Example 1, N-(6-Methoxy-1,3-benzothiazol-2-yl)-1′,5′-dihydrospiro[4-azabicyclo[2.2.2]octane-2,4′-imidazol]-2′-amine] | 100 to 1000 |
| c1csc(NC2=NCC3(CN4CCC3CC4)N2)n1 (stereo not drawn) [Example 9] | 1000 to 100000 |
| Clc1cnc(NC2=NCC3(CN4CCC3CC4)N2)nc1 (stereo not drawn) [Example 17] | 100 to 1000 |
| Clc1ccc(NC2=NCC3(CN4CCC3CC4)N2)nn1 (stereo not drawn) [Example 25] | 1000 to 100000 |
| Clc1ccc2nc(NC3=NCC4(CN5CCC4CC5)N3)sc2n1 (stereo not drawn) [Example 28] | < 100 |
| c1ccn2nc(NC3=NCC4(CN5CCC4CC5)N3)nc2c1 (stereo not drawn) [Example 34] | 100 to 1000 |
| Cc1ccc2nc(NC3=NCC4(CN5CCC4CC5)N3)oc2c1 (stereo not drawn) [Example 8, N-(6-Methyl-1,3-benzoxazol-2-yl)-1′,5′-dihydrospiro[4-azabicyclo[2.2.2]octane-2,4′-imidazol]-2′-amine] | < 100 |
| Cc1nnc(NC2=NCC3(CN4CCC3CC4)N2C)nc1C (stereo not drawn) [Example 22] | > 1e+06 |
| Fc1ccc2nc(NC3=NCC4(CN5CCC4CC5)N3)sc2n1 (stereo not drawn) [Example 44, N-(5-Fluoro[1,3]thiazolo[5,4-b]pyridin-2-yl)-1′,5′-dihydrospiro[4-azabicyclo[2.2.2]octane-2,4′-imidazol]-2′-amine] | 100 to 1000 |
| Clc1ccc2nc(NC3=NCC4(CN5CCC4CC5)N3)sc2c1 (stereo not drawn) [Example 52] | 100 to 1000 |
| CN1C(Nc2ncc(Cl)cn2)=NCC12CN1CCC2CC1 (stereo not drawn) [Example 18] | 100 to 1000 |

Same assay, conditions: FLIPR α7-HI (EC50, nM), HEK 293 cells, Ca2+ flux; Table 2, activity class column

| Structure (SMILES) | EC50 [nM] |
| --- | --- |
| c1ccc(-c2cnc(NC3=NC4(CO3)CN3CCC4CC3)s2)cc1 (stereo not drawn) [Example 68, N-(5-Phenylthiazol-2-yl)-5H-1′-azaspiro[oxazole-4,3′-bicyclo[2.2.2]octan]-2-amine] | 100 to 1000 |

Same assay, conditions: FLIPR α7-HI (EC50, nM), HEK 293 cells, Ca2+ flux; Table 3

| Structure (SMILES) | EC50 [nM] |
| --- | --- |
| COc1cc(NC2=NCCC3(CN4CCC3CC4)O2)ncn1 (stereo not drawn) [Example 80] | 3650 |
| c1ccc2nc(NC3=NCCC4(CN5CCC4CC5)O3)ccc2c1 (stereo not drawn) [Example 86] | 1810 |

Same assay, conditions: FLIPR α7-HI (EC50, nM), HEK 293 cells, Ca2+ flux; Table 3, activity class

| Structure (SMILES) | EC50 [nM] |
| --- | --- |
| COc1ccc2nc(NC3=NCCC4(CN5CCC4CC5)O3)sc2c1 (stereo not drawn) [Example 70, N-(6-Methoxybenzo[d]thiazol-2-yl)-4,5-dihydro-1′-azaspiro[[1,3]oxazine-6,3′-bicyclo[2.2.2]octan]-2-amine] | 100 to 1000 |
| Clc1ccc(NC2=NCCC3(CN4CCC3CC4)O2)nc1 (stereo not drawn) [Example 75] | 1000 to 100000 |
| Cc1nnc(NC2=NCCC3(CN4CCC3CC4)O2)nc1C (stereo not drawn) [Example 81] | 1000 to 100000 |
| c1ccc2nc(NC3=NCCC4(CN5CCC4CC5)O3)ncc2c1 (stereo not drawn) [Example 84] | 100 to 1000 |
| Clc1cnc(NC2=NCCC3(CN4CCC3CC4)O2)cn1 (stereo not drawn) [Example 72, N-(5-Chloropyrazin-2-yl)-4,5-dihydro-1′-azaspiro[[1,3]oxazine-6,3′-bicyclo[2.2.2]octan]-2-amine] | 1000 to 100000 |
| c1ccc2cc(NC3=NCCC4(CN5CCC4CC5)O3)ncc2c1 (single isomer, unassigned) [Example 76a] | 100 to 1000 |
| COc1cc(NC2=NCCC3(CN4CCC3CC4)O2)ncn1 (stereo not drawn) [Example 80] | 1000 to 100000 |
| c1ccc2nc(NC3=NCCC4(CN5CCC4CC5)O3)ccc2c1 (stereo not drawn) [Example 86] | 1000 to 100000 |
| c1ccc2nc(NC3=NCCC4(CN5CCC4CC5)O3)cnc2c1 (stereo not drawn) [Example 85] | 1000 to 100000 |

Same assay, conditions: FLIPR α7-HI (EC50, nM), HEK 293 cells, Ca2+ flux; Table 4, activity class

| Structure (SMILES) | EC50 [nM] |
| --- | --- |
| CN1CC2(CN3CCC2CC3)O/C1=N\c1cnc(Cl)cn1 (stereo not drawn) [Example 91, (Z)-5-Chloro-N-(3-methyl-1′-azaspiro[oxazolidine-5,3′-bicyclo[2.2.2]octane]-2-ylidene)pyrazin-2-amine] | 1000 to 100000 |
| CN1CC2(CN3CCC2CC3)O/C1=N\c1ncc(-c2ccccc2)s1 (stereo not drawn) [Example 90, (Z)—N-(3-Methyl-1′-azaspiro[oxazolidine-5,3′-bicyclo[2.2.2]octane]-2-ylidene)-5-phenylthiazol-2-amine] | 100 to 1000 |

Same assay, conditions: HEK 293 cells, Ca2+ flux; Table 3, activity class; read-out: FLIPR α7-HI (EC50)

| Structure (SMILES) | EC50 [nM] |
| --- | --- |
| c1ccc2[nH]c(NC3=NCCC4(CN5CCC4CC5)O3)nc2c1 (stereo not drawn) [Example 77] | > 1e+06 |

Same assay, conditions: HEK 293 cells, Ca2+ flux; Table 3; read-out: FLIPR α7-HI (EC50)

| Structure (SMILES) | EC50 [nM] |
| --- | --- |
| c1ccc2[nH]c(NC3=NCCC4(CN5CCC4CC5)O3)nc2c1 (stereo not drawn) [Example 77] | > 100000 |

Same assay, conditions: HEK 293 cells, Ca2+ flux; read-out: FLIPR α7-HI (EC50)

| Structure (SMILES) | EC50 [nM] |
| --- | --- |
| c1ccc2[nH]c(NC3=NCC4(CN5CCC4CC5)N3)nc2c1 (stereo not drawn) [Example 16] | 1290 |
